The target in one series is T1, C-reactive protein (CRP) (Homo sapiens, UniProt P02741).
T1 construct: from tissue; host or cells: Human material
T1 sequence (P02741 19-224): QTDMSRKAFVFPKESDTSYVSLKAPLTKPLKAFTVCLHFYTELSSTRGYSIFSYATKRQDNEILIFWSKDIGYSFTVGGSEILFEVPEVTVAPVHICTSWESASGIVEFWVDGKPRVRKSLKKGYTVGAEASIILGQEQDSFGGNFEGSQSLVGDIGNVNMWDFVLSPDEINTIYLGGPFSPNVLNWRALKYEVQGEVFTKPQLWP
Nature of the series: Inhibition of binding of 125I radiolabelled CRP to enzyme modified low density lipoprotein immobilized in microtitre plates. As for the experimental part: Screening for Inhibitors of Binding of ^125I Radiolabelled CRP to Enzyme Modified Low Density Lipoprotein Immobilized in Microtitre Plates. […] However, likely critical ligands of importance in vivo in the pathogenesis of atherothrombosis, are modified forms of low density lipoprotein. […] All wells were then washed three times with 200 μl volumes of PBS before blocking by incubation for 1 h at room temperature with 100 μl per well of 0.2 m Tris pH 8.0. The wells were then washed again 3 times with 200 μl volumes of PBS and finally emptied before adding to each one 100 μl volumes of the following reagents.

For series [1], the system named is experimental acute myocardial infarction produced by coronary artery ligation. The source says:
Induction and Measurement of Myocardial Infarction. Female Wistar rats bred at ICSM, Hammersmith campus were used at age 9-10 wk and weighed 230-280 g. […] All animals were carefully examined and were healthy before being fasted overnight prior to surgery. General anesthesia was induced with inhaled isoflurane and supplemental oxygen was provided at 1.0 liter/min. The chest was opened through the sixth intercostal space, anesthesia was discontinued but supplemental oxygen continued at 0.5 liter/min, and the pericardium was opened to allow the heart to be lifted cut of the thorax. The left anterior descending coronary artery was immediately ligated at a constant distance just below the atrium with a 5/0 silk suture, the heart was replaced and the chest closed whilst active ventilation with 100% oxygen was continued. The duration of pneumothorax was about 30 s. […] Buprenorphine 0.05 mg/kg was given immediately for post-operative analgesia and repeated 12 hourly.
Deep anesthesia was induced with isoflurane and the hearts were excised while still beating in sinus rhythm and immediately arrested in diastole by immersion in 10 ml of 30 mM KCl. They were then cleaned of any extraneous adherent tissue and weighed before being briefly chilled at −20° C. to produce sufficient rigidity to facilitate cutting into defined sections. Each heart was cut into four slices of equal thickness perpendicular to the course of the left coronary artery, starting from the apex of the heart and ending at the position of the ligature around that artery. These slices were designated A, B, C, and D starting from the apex, and each was washed with pure water and then immersed in 0.02 M phosphate buffer pH 7.4 containing 0.5 mg/ml of nitroblue tetrazolium (NBT) (Sigma) at 37° C. for 30 min. NBT stains viable but not infarcted myocardium.
After staining with NBT the slices were washed briefly in cold water before fixation in 10% buffered formalin for 48 h, and the proximal cut surface of each slice was then imaged under standard conditions with a high resolution digital camera. The captured images were coded and analyzed ‘blind’ without knowledge by the operators of the treatment received by the rat in question. Lines were drawn around the total area of the slice, the NBT negative infarct zone, and any parts of the image to be excluded from the estimation including valves, chordae tendinae, shadows and edges, and the area of the infarct was determined as a percentage of the total area. […] Statistical significance of differences between infarct sizes in different treatment groups within each experiment were sought by one way ANOVA and by Bonferroni t-tests.
In Vivo Treatments. […] Human CRP or SAP were injected i.p. at 40 mg/kg 1 h after coronary artery ligation and then at 24 h intervals until the rats were killed on day 5. The proteins were dissolved in 10 mM Tris, 140 mM NaCl, pH 8.0, also containing 2 mM CaCl2 in the case of human CRP, and the control rats received injections of the buffer alone at the same intervals.

Series [2] in a line: Plasma clearance and serum concentration of injected human CRP and SAP in rats.
Experimental: Human CRP or SAP were injected i.p. at 40 mg/kg 1 h after coronary artery ligation and then at 24 h intervals until the rats were killed on day 5. The proteins were dissolved in 10 mM Tris, 140 mM NaCl, pH 8.0, also containing 2 mM CaCl2 in the case of human CRP, and the control rats received injections of the buffer alone at the same intervals. […] Plasma clearance of human CRP was also studied in the same protocol in normal unoperated rats that had received cobra venom factor 24 h previously.
Setting [3] is: Experiment 2, 40 mg/kg i.p. 1 h after ligation then every 24 h, day 5.
[4] abbreviates: Experiment 2, 5 rats treated, 40 mg/kg i.p. daily.

Like-named read-outs stand apart in the source and are kept apart here.

For the compound `N[C@@H](COP(=O)(O)O)C(=O)O` [Phosphoserine, phosphoserine], the “Percent inhibition of binding of radiolabelled CRP to immobilized enzyme modified low density lipoprotein” value (“Percent inhibition” for short) worked out at 0 at C-reactive protein (CRP) (compound molarity 1 μM); 0 at C-reactive protein (CRP) (compound molarity 10 μM); 0 at C-reactive protein (CRP) (compound molarity 100 μM); 0 on C-reactive protein (CRP) (compound molarity 1 mM); 38 on C-reactive protein (CRP) (compound molarity 10 mM).

As for `NCCOP(=O)(O)O` [Phosphoethanolamine, phosphoethanolamine], the “Inhibition of CRP binding to enzyme modified LDL, in words” value on C-reactive protein (CRP) is given as “inhibition at high concentration, but only modest effects when diluted”. Moreover, the “Percent inhibition” value on C-reactive protein (CRP) (compound molarity 1 μM) stood at 0; on C-reactive protein (CRP) (compound molarity 10 μM) it was 0; at C-reactive protein (CRP) (compound molarity 100 μM), 39; on C-reactive protein (CRP) (compound molarity 1 mM), 90; at C-reactive protein (CRP) (compound molarity 10 mM) it was 92.

Take `O=C(O)CN(CCN(CC(=O)O)CC(=O)O)CC(=O)O` [EDTA]: the “Inhibition of CRP binding to enzyme modified LDL, in words” value at C-reactive protein (CRP) is “All binding was inhibited”.

As to “Human CRP: isolated pure human C-reactive protein, a plasma pentraxin”, the “Infarct size mean (SD) %” value in series [1] (Experiment 1, 40 mg/kg i.p. 1 h after ligation then every 24 h, day 5) is 21.2 (2.0) %; in series [1] (setting [3]), 17.6 (0.4) %; in series [1] (rat, in vivo) it was 19.7 (1.6) %. In addition, the “Day 5 survivors” value in series [1] (Experiment 1, 5 rats treated, 40 mg/kg i.p. daily) was 4; in series [1] (setting [4]) it was 3; in series [1] (Table 3 experiment, 5 or 6 rats treated), 3. Moreover, the “Infarcts larger than in control untreated animals” value in series [1] (complement sufficient rats, day 5, Table 3 experiment) is on record as “approximately 40%”. Further, the Clinical condition entry was “rapidly became clinically less well than buffer-treated controls” in series [1] (coronary artery ligated rats, 40 mg/kg i.p.) and “absolutely no ill effects” in series [1] (rats not operated on, same doses). For the same compound, in series [1] (day 5, Table 2 experiments), the “Infarcts larger than in control rats treated with buffer or human SAP” value is “about 40%”. For the same compound, the “Effect on the reduced infarct size in decomplemented rats” value in series [1] (rat, in vivo) is “no effect at all”. In series [2] (coronary artery ligated rats killed 24 h after the last of 5 daily 40 mg/kg i.p. injections), the “Serum concentration of the injected protein” value was 13 to 53 mg/L. The “Plasma clearance in decomplemented rats” value in series [2] (single 40 mg/kg i.p., cobra venom factor 250 U/kg 24 h beforehand, unoperated rats) was “not affected by complement depletion”.

For “Human SAP: human serum amyloid P component, pentraxin closely related to CRP”, the “Infarct size mean (SD) %” value in series [1] (setting [3]) was 12.4 (1.9) %. The “Day 5 survivors” value in series [1] (setting [4]) came to 5. The Clinical condition entry in series [1] (normal or coronary artery ligated rats) is “no adverse clinical effects”.

Turning to `CCCCCCCCCCCCCCCCOP(=O)([O-])OCC[N+](C)(C)C` [Hexadecyl phosphocholine, hexadecyl phosphocholine], the “Percent inhibition” value on C-reactive protein (CRP) (compound molarity 1 μM) amounted to 0; at C-reactive protein (CRP) (compound molarity 10 μM) it was 0; at C-reactive protein (CRP) (compound molarity 100 μM), 76; at C-reactive protein (CRP) (compound molarity 1 mM) it was 73; on C-reactive protein (CRP) (compound molarity 10 mM), 94. The “IC50 for inhibition of CRP binding to enzyme modified LDL” value on C-reactive protein (CRP) (stated in words) was “in the micromolar range”.
